Test results taken from patent publication US8334315B2, “Substituted aromatic carboxamide and urea derivatives as vanilloid receptor ligands” (Gruenenthal GmbH, priority 2009, dated 2012).

Assays:
hVR1 [1] = biological target: T1, hVR1 (Homo sapiens, UniProt Q8NER1); assay: Functional test on VR1, FLIPR Ca2+ influx in transfected CHO K1 cells, capsaicin; assay type: cell-based, human being; design: key to Ki (human being) [nM] Cap: agonist / partial agonist / no effect: AG=agonist; pAG=partial agonist; NE=no effect; conditions: for Ki: capsaicin (Cap), includes values given in brackets after pAG, read-out: Ki (human being) [nM] Cap
T1 construct: expressed in transfected cells; host or cells: CHO K1 cells (ECACC), stably transfected
Excerpt: In the process, the Ca^2+ influx is quantified in the FLIPR assay with the aid of a Ca^2+-sensitive dye (type Fluo-4, Molecular Probes Europe BV, Leiden, the Netherlands) in a fluorescent imaging plate reader (FLIPR, Molecular Devices, Sunnyvale, USA), as described hereinafter.
II. Functional Tests Carried Out on the Vanilloid Receptor (VR1)
The agonistic or antagonistic effect of the substances to be tested on the vanilloid receptor 1 (VR1) can also be determined using the following assay. In this assay, the influx of Ca^2+ through the channel is quantified with the aid of a Ca^2+-sensitive dye (type Fluo-4, Molecular Probes Europe BV, Leiden, the Netherlands) in a fluorescent imaging plate reader (FLIPR, Molecular Devices, Sunnyvale, USA).
Chinese hamster ovary cells (CHO K1 cells, European Collection of Cell Cultures (ECACC) United Kingdom) are stably transfected with the VR1 gene. For functional testing, these cells are plated out on poly-D-lysine-coated black 96-well plates having a clear base (BD Biosciences, Heidelberg, Germany) at a density of 25,000 cells/well. The cells are incubated overnight at 37° C. and 5% CO2 in a culture medium (Ham's F12 nutrient mixture, 10% by volume of FCS (foetal calf serum), 18 μg/ml of L-proline). The next day the cells are incubated with Fluo-4 (Fluo-4 2 μM, 0.01% by volume of Pluronic F127, Molecular Probes in HBSS (Hank's buffered saline solution), Gibco Invitrogen GmbH, Karlsruhe, Germany) for 30 minutes at 37° C. Subsequently, the plates are washed three times with HBSS buffer and after further incubation for 15 minutes at RT used for Ca^2+ measurement in a FLIPR assay. The Ca^2+-dependent fluorescence is measured before and after the addition of the substances to be tested (λex wavelength=488 nm, λem=540 nm). Quantification is carried out by measuring the highest fluorescence intensity (FC, fluorescence counts) over time.
The FLIPR protocol consists of 2 substance additions. First the compounds to be tested (10 μM) are pipetted onto the cells and the Ca^2+ influx is compared with the control (capsaicin 10 μM) (% activation based on the Ca^2+ signal after the addition of 10 μM of capsaicin). After 5 minutes' incubation, 100 nM of capsaicin are applied and the Ca^2+ influx is also determined.
Desensitising agonists and antagonists led to suppression of the Ca^2+ influx. The % inhibition is calculated compared to the maximum achievable inhibition with 10 μM of capsaicin.
Starting from the percentage displacement caused by different concentrations of the compounds to be tested of general formula I, IC50 inhibitory concentrations which cause a 50-per cent displacement of capsaicin were calculated. Ki values for the test substances were obtained by conversion by means of the Cheng-Prusoff equation (Cheng, Prusoff; Biochem. Pharmacol. 22, 3099-3108, 1973).
The affinity of the compounds according to the invention for the vanilloid receptor 1 (VR1/TRPV1 receptor) was determined as described hereinbefore (pharmacological methods I and II respectively).

hVR1 [2] = biological target: T1, hVR1; assay: Functional test on human VR1, 45° C. stimulus; assay type: cell-based, human being; design: key to IC50 (human being), 45° C.: agonist / partial agonist / no effect: AG=agonist; pAG=partial agonist; NE=no effect; conditions: for IC50: read-out: IC50 (human being) [nM], 45° C.
[3] = biological target: T2, rat-species vanilloid receptor 1 (VR1/TRPV1) (Rattus norvegicus, UniProt O35433); assay: Functional testing on the vanilloid receptor 1, FLIPR Ca2+ influx in rat DRG cells, capsaicin; assay type: cell-based; design: key to Ki (rat) [nM] Cap: agonist / partial agonist / no effect: AG=agonist; pAG=partial agonist; NE=no effect; conditions: for Ki: capsaicin (Cap), includes values given in brackets after pAG
T2 construct: endogenous in cells; host or cells: primary cells dissociated from rat dorsal root ganglia (DRG), cultured 2-3 days with NGF
Excerpt: I. Functional Testing Carried Out on the Vanilloid Receptor 1 (VRI/TRPV1 Receptor)
The agonistic or antagonistic effect of the substances to be tested on the rat-species vanilloid receptor 1 (VR1/TRPV1) can be determined using the following assay. In this assay, the influx of Ca^2+ through the receptor channel is quantified with the aid of a Ca^2+-sensitive dye (type Fluo-4, Molecular Probes Europe BV, Leiden, the Netherlands) in a fluorescent imaging plate reader (FLIPR, Molecular Devices, Sunnyvale, USA).
Complete medium: 50 ml HAMS F12 nutrient mixture (Gibco Invitrogen GmbH, Karlsruhe, Germany) with
10% by volume of FCS (foetal calf serum, Gibco Invitrogen GmbH, Karlsruhe, Germany, heat-inactivated);
2 mM L-glutamine (Sigma, Munich, Germany);
1% by weight of AA solution (antibiotic/antimyotic solution, PAA, Pasching, Austria) and 25 ng/ml NGF medium (2.5 S, Gibco Invitrogen GmbH, Karlsruhe, Germany)
Cell culture plate: Poly-D-lysine-coated, black 96-well plates having a clear base (96-well black/clear plate, BD Biosciences, Heidelberg, Germany) are additionally coated with laminin (Gibco Invitrogen GmbH, Karlsruhe, Germany), the laminin being diluted with PBS (Ca—Mg-free PBS, Gibco Invitrogen GmbH, Karlsruhe, Germany) to a concentration of 100 μg/ml. Aliquots having a laminin concentration of 100 μg/ml are removed and stored at −20° C. The aliquots are diluted with PBS in a ratio of 1:10 to 10 μg/ml of laminin and respectively 50 μL of the solution are pipetted into a recess in the cell culture plate. The cell culture plates are incubated for at least two hours at 37° C., the excess solution is removed by suction and the recesses are each washed twice with PBS. The coated cell culture plates are stored with excess PBS which is not removed until just before the feeding of the cells.
Preparation of the Cells:
The vertebral column is removed from decapitated rats and placed immediately into cold HBSS buffer (Hank's buffered saline solution, Gibco Invitrogen GmbH, Karlsruhe, Germany), i.e. buffer located in an ice bath, mixed with 1% by volume (per cent by volume) of an AA solution (antibiotic/antimyotic solution, PAA, Pasching, Austria). The vertebral column is cut longitudinally and removed together with fasciae from the vertebral canal. Subsequently, the dorsal root ganglia (DRG) are removed and again stored in cold HBSS buffer mixed with 1% by volume of an AA solution. The DRG, from which all blood remnants and spinal nerves have been removed, are transferred in each case to 500 μL of cold type 2 collagenase (PAA, Pasching, Austria) and incubated for 35 minutes at 37° C. After the addition of 2.5% by volume of trypsin (PAA, Pasching, Austria), incubation is continued for 10 minutes at 37° C. After complete incubation, the enzyme solution is carefully pipetted off and 500 μL of complete medium are added to each of the remaining DRG. The DRG are respectively suspended several times, drawn through cannulae No. 1, No. 12 and No. 16 using a syringe and transferred to a 50 ml Falcon tube which is filled up to 15 ml with complete medium. The contents of each Falcon tube are respectively filtered through a 70 μm Falcon filter element and centrifuged for 10 minutes at 1,200 rpm and RT. The resulting pellet is respectively taken up in 250 μL of complete medium and the cell count is determined.
The number of cells in the suspension is set to 3×10^5 per ml and 150 μL of this suspension are in each case introduced into a recess in the cell culture plates coated as described hereinbefore. In the incubator the plates are left for two to three days at 37° C., 5% by volume of CO2 and 95% relative humidity. […]

hVR1 [4] = biological target: T1, hVR1; assay: Functional test on hVR1 after pH stimulus; assay type: cell-based, human being; design: key to IC50 (human being) hVR1, pH: agonist / partial agonist / no effect: AG=agonist; pAG=partial agonist; NE=no effect; conditions: for IC50: includes value printed in brackets after pAG, read-out: IC50 (human being) hVR1 [nM], pH; for inhibition at 10 µM: read-out: IC50 (human being) hVR1, pH: inhibition (as a percentage)
[5] = read-out: IC50 (human being), 45° C.: inhibition (as a percentage)

T1 sequence (Q8NER1 whole entry): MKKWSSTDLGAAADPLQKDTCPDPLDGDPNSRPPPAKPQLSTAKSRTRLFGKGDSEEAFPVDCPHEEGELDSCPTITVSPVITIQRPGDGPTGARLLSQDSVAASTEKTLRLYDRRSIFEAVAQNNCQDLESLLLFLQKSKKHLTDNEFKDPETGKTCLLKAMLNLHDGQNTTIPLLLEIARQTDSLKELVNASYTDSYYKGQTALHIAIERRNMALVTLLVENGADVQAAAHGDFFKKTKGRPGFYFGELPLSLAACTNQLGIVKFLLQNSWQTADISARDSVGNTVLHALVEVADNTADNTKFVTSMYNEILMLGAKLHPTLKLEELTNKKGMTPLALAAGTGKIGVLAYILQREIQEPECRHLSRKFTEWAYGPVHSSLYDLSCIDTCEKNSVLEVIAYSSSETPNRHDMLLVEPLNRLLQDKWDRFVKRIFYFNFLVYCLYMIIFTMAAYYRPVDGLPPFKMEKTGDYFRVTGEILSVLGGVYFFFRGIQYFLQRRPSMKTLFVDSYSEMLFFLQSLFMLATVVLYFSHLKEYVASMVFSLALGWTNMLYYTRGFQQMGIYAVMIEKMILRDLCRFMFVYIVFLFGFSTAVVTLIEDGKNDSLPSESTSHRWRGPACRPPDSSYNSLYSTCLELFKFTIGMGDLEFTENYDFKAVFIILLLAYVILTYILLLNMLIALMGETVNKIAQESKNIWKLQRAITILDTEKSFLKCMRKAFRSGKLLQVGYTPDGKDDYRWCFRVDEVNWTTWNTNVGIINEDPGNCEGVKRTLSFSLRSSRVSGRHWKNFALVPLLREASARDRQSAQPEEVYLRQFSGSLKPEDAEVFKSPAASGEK
T2 sequence (O35433 whole entry): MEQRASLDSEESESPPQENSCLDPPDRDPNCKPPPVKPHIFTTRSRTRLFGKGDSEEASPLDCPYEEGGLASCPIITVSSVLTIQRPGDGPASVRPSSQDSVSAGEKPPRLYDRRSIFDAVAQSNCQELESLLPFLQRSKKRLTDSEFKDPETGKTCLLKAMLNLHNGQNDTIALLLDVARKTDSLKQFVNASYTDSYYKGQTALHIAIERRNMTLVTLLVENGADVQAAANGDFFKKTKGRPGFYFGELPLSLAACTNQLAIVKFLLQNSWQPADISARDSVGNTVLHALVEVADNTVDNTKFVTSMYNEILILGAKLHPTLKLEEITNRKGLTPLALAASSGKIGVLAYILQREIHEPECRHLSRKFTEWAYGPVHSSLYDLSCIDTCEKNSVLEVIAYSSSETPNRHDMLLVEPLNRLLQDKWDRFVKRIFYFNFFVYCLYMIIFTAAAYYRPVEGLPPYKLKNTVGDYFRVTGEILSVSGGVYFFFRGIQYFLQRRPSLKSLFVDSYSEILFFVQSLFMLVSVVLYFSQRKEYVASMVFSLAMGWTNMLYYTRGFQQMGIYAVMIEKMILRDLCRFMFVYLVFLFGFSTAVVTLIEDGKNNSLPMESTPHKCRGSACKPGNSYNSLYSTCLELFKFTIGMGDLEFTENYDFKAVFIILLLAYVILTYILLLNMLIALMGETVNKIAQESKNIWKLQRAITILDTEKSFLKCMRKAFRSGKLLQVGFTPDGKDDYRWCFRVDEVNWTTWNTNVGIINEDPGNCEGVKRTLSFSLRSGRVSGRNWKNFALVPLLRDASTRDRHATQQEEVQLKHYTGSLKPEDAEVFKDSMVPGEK

| Ki (hVR1 [1]) | IC50 (human being) hVR1, pH: agonist / partial agonist / no effect (hVR1 [4]) | Ki (human being) [nM] Cap: agonist / partial agonist / no effect (hVR1 [1]) | Compound | further results |
| --- | --- | --- | --- | --- |
| 25 nM | pAG | pAG | CC(C(=O)NCc1cc(C(C)(C)C)nn1-c1cccc(Cl)c1)c1ccc2c(c1)OCCCO2 (stereo not drawn) [Example 15, N-((3-tert-butyl-1-(3-chlorophenyl)-1H-pyrazol-5-yl)methyl)-2-(3,4-dihydro-2H-benzo[b][1,4]dioxepin-7-yl)propanamide] | IC50 (hVR1 [4]): 412 nM; IC50 (human being), 45° C.: agonist / partial agonist / no effect (hVR1 [2]): pAG; Ki (rat) [nM] Cap: agonist / partial agonist / no effect [3]: AG |
| 0.2 nM | – | – | CC(C(=O)NCc1cc(C(C)(C)C)nn1-c1cccc(Cl)c1)c1cccc2cnccc12 (stereo not drawn) [Example 63, N-((3-tert-butyl-1-(3-chlorophenyl)-1H-pyrazol-5-yl)methyl)-2-(isoquinolin-5-yl)propanamide] | inhibition at 10 µM (hVR1 [4]): 33%; inhibition at 0.6 µM (hVR1 [2]; @ 0.6 μM, read-out: IC50 (human being), 45° C.: inhibition (as a percentage)): 9%; Ki (rat) [nM] Cap: agonist / partial agonist / no effect [3]: pAG; Ki [3]: 0.5 nM |
| – | AG | AG | CC(C(=O)NCc1cc(C(C)(C)C)nn1-c1cccc(Cl)c1)c1cccc2ncccc12 (stereo not drawn) [Example 70, N-((3-tert-butyl-1-(3-chlorophenyl)-1H-pyrazol-5-yl)methyl)-2-(quinolin-5-yl)propanamide] | IC50 (human being), 45° C.: agonist / partial agonist / no effect (hVR1 [2]): AG |
| 0.7 nM | – | – | CC(C(=O)NCc1cc(C(F)(F)F)nn1-c1cccc(Cl)c1)c1cccc2ccc(O)cc12 (stereo not drawn) [Example 58, N-((1-(3-chlorophenyl)-3-(trifluoromethyl)-1H-pyrazol-5-yl)methyl)-2-(7-hydroxynaphthalen-1-yl)propanamide] | IC50 (hVR1 [4]): 4930 nM; inhibition at 2.5 µM (hVR1 [2]; [5]): 41%; Ki [3]: 7.6 nM |
| 0.3 nM | – | – | Cc1cc2c(C(C)C(=O)NCc3cc(C(F)(F)F)nn3-c3cccc(Cl)c3)cccc2cn1 (stereo not drawn) [Example 65, N-((1-(3-chlorophenyl)-3-(trifluoromethyl)-1H-pyrazol-5-yl)methyl)-2-(3-methylisoquinolin-5-yl)propanamide] | inhibition at 10 µM (hVR1 [4]): 23%; IC50 (hVR1 [2]): 780 nM |
| 2.4 nM | – | – | CC(C(=O)NCc1cc(C(F)(F)F)nn1-c1cccc(Cl)c1)c1cccc2c1CCC2O (stereo not drawn) [Example 207, N-((1-(3-chlorophenyl)-3-(trifluoromethyl)-1H-pyrazol-5-yl)methyl)-2-(1-hydroxy-2,3-dihydro-1H-inden-4-yl)propanamide] | inhibition at 10 µM (hVR1 [2]; @ 10 μM, read-out: IC50 (human being), 45° C.: inhibition (as a percentage)): 14% |

Continued, molecule first:

| Compound | Ki (hVR1 [1]) | IC50 (human being) hVR1, pH: agonist / partial agonist / no effect (hVR1 [4]) | Ki (human being) [nM] Cap: agonist / partial agonist / no effect (hVR1 [1]) | further results |
| --- | --- | --- | --- | --- |
| O=C(NCc1cc(C(F)(F)F)nn1-c1cccc(Cl)c1)Nc1ccc2c(c1)OCCO2 [Example 84, 1-((1-(3-chlorophenyl)-3-(trifluoromethyl)-1H-pyrazol-5-yl)methyl)-3-(2,3-dihydrobenzo[b][1,4]dioxin-6-yl)urea] | 51.6 nM | – | – | IC50 (hVR1 [2]): 235 nM; Ki [3]: 181 nM |
| CC(C(=O)NCc1cc(C(C)(C)C)nn1-c1cccc(Cl)c1)c1cccc2c1OCCO2 (stereo not drawn) [Example 14, N-((3-tert-butyl-1-(3-chlorophenyl)-1H-pyrazol-5-yl)methyl)-2-(2,3-dihydrobenzo[b][1,4]dioxin-5-yl)propanamide] | – | – | – | Ki (rat) [nM] Cap: agonist / partial agonist / no effect [3]: AG |
| O=C(NCc1cc(C(F)(F)F)nn1-c1cccc(Cl)c1)Nc1ccc2ncsc2c1 [Example 96, 1-(benzo[d]thiazol-6-yl)-3-((1-(3-chlorophenyl)-3-(trifluoromethyl)-1H-pyrazol-5-yl)methyl)urea] | 7.3 nM | pAG | pAG | – |
| CC(C(=O)NCc1cc(C(F)(F)F)nn1-c1cccc(Cl)c1)c1ccc2[nH]ccc2c1 (stereo not drawn) [Example 31, N-((1-(3-chlorophenyl)-3-(trifluoromethyl)-1H-pyrazol-5-yl)methyl)-2-(1H-indol-5-yl)propanamide] | 2.4 nM | pAG | pAG | – |
| CC(C(=O)NCc1cc(C(F)(F)F)nn1-c1cccc(Cl)c1)c1ccc2[nH]ncc2c1 (stereo not drawn) [Example 35, N-((1-(3-chlorophenyl)-3-(trifluoromethyl)-1H-pyrazol-5-yl)methyl)-2-(1H-indazol-5-yl)propanamide] | 0.3 nM | pAG | pAG | IC50 (human being), 45° C.: agonist / partial agonist / no effect (hVR1 [2]): pAG |
| O=C(NCc1cc(C(F)(F)F)nn1-c1cccc(Cl)c1)Nc1ccc2c(c1)OCO2 [Example 83, 1-(Benzo[d][1,3]dioxol-5-yl)-3-((1-(3-chlorophenyl)-3-(trifluoromethyl)-1H-pyrazol-5-yl)methyl)urea] | 50.7 nM | – | – | inhibition at 2.5 µM (hVR1 [2]; [5]): 16% |
